Experimental data: PubChem BioAssay AID1963837 (Molecular Pharmacology Branch, DTP, NCI, 2024)

Tested on: 843126-344-R-J1-PDC complex spheroid viability
Assay: Anticancer human tumor 843126-344-R-J1-PDC patient-derived melanoma cell line growth inhibition [POLQ]
Conditions: for IC50: curve of first compound; for viability, T/C: stronger effect = lower value
Outline: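 Three-cell-type spheroids modelling solid tumor plus stroma served as the readout system; POL inhibitors were tested individually and in combination, concentration ranges set by clinical Cmax where known.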

[1] = second compound 0.0316 µM, first compound 0.0316 µM
[2] = second compound 0.0316 µM, first compound 0.1 µM
[3] = second compound 0.0316 µM, first compound 0.316 µM
[4] = second compound 0.0316 µM, first compound 1 µM
[5] = second compound 0.0316 µM, first compound 3.16 µM
[6] = second compound 0.0316 µM, first compound 10 µM
[7] = second compound 0.1 µM, first compound 0.0316 µM
[8] = second compound 0.1 µM, first compound 0.1 µM
[9] = second compound 0.1 µM, first compound 0.316 µM
[10] = second compound 0.1 µM, first compound 1 µM
[11] = second compound 0.1 µM, first compound 3.16 µM
[12] = second compound 0.1 µM, first compound 10 µM
[13] = second compound 0.316 µM, first compound 0.0316 µM
[14] = second compound 0.316 µM, first compound 0.1 µM
[15] = second compound 0.316 µM, first compound 0.316 µM
[16] = second compound 0.316 µM, first compound 1 µM
[17] = second compound 0.316 µM, first compound 3.16 µM
[18] = second compound 0.316 µM, first compound 10 µM
[19] = second compound 1 µM, first compound 0.0316 µM
[20] = second compound 1 µM, first compound 0.1 µM
[21] = second compound 1 µM, first compound 0.316 µM
[22] = second compound 1 µM, first compound 1 µM
[23] = second compound 1 µM, first compound 3.16 µM
[24] = second compound 1 µM, first compound 10 µM
[25] = second compound 3.16 µM, first compound 0.0316 µM
[26] = second compound 3.16 µM, first compound 0.1 µM
[27] = second compound 3.16 µM, first compound 0.316 µM
[28] = second compound 3.16 µM, first compound 1 µM
[29] = second compound 3.16 µM, first compound 3.16 µM
[30] = second compound 3.16 µM, first compound 10 µM
[31] = second compound 10 µM, first compound 0.0316 µM
[32] = second compound 10 µM, first compound 0.1 µM
[33] = second compound 10 µM, first compound 0.316 µM
[34] = second compound 10 µM, first compound 1 µM
[35] = second compound 10 µM, first compound 3.16 µM
[36] = second compound 10 µM, first compound 10 µM
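Wherever viability, T/C is given: spheroids exposed to drugs for seven days before readout.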

Work on `O=C(c1cc(Cc2n[nH]c(=O)c3ccccc23)ccc1F)N1CCN(C(=O)C2CC2)CC1` + COC1C(OC(N)=O)C(O)C(Oc2ccc3c(O)c(NC(=O)c4ccc(O)c(CC=C(C)C)c4)c(=O)oc3c2C)OC1(C)C yielded an IC50 (second compound 0.0316 µM) greater than 10 µM, an IC50 (second compound 0.1 µM) greater than 10 µM and an IC50 (second compound 0.316 µM) greater than 10 µM. The IC50 (second compound 1 µM) was greater than 10 µM, the IC50 (second compound 3.16 µM) was greater than 10 µM and the IC50 (second compound 10 µM) was greater than 10 µM. The viability, T/C [1] was 81.4%, the viability, T/C [2] was 94.9% and the viability, T/C [3] was 76.9%. For the same molecule, the viability, T/C [4] was 82.5%, the viability, T/C [5] was 80.7% and the viability, T/C [6] was 63.8%. For the same molecule, the viability, T/C [7] was 76.2%, the viability, T/C [8] was 98.7% and the viability, T/C [9] was 90.2%. The viability, T/C [10] was 71.9%, the viability, T/C [11] was 80.7% and the viability, T/C [12] was 61.6%. It also gave a viability, T/C [13] of 91.8%, a viability, T/C [14] of 71.1% and a viability, T/C [15] of 97.9%. It also gave a viability, T/C [16] of 81.5%, a viability, T/C [17] of 80.7% and a viability, T/C [18] of 73.5%. It also gave a viability, T/C [19] of 83.3%, a viability, T/C [20] of 85% and a viability, T/C [21] of 92.8%. For the same molecule, the viability, T/C [22] was 92.3%, the viability, T/C [23] was 100% and the viability, T/C [24] was 63.6%. It also gave a viability, T/C [25] of 71.1%, a viability, T/C [26] of 81.7% and a viability, T/C [27] of 106%. The viability, T/C [28] was 76.5%, the viability, T/C [29] was 83.5% and the viability, T/C [30] was 66.1%. For the same molecule, the viability, T/C [31] was 91%, the viability, T/C [32] was 72% and the viability, T/C [33] was 96.1%. The viability, T/C [34] was 80.6%, the viability, T/C [35] was 80.6% and the viability, T/C [36] was 61%.

`CNCc1ccc(-c2[nH]c3cc(F)cc4c3c2CCNC4=O)cc1` + COC1C(OC(N)=O)C(O)C(Oc2ccc3c(O)c(NC(=O)c4ccc(O)c(CC=C(C)C)c4)c(=O)oc3c2C)OC1(C)C showed an IC50 (second compound 0.0316 µM) greater than 10 µM, an IC50 (second compound 0.1 µM) greater than 10 µM and an IC50 (second compound 0.316 µM) greater than 10 µM. For the same molecule, the IC50 (second compound 1 µM) was greater than 10 µM, the IC50 (second compound 3.16 µM) was greater than 10 µM and the IC50 (second compound 10 µM) was greater than 10 µM. The viability, T/C [1] was 84.8%, the viability, T/C [2] was 94% and the viability, T/C [3] was 98.3%. It also gave a viability, T/C [4] of 92.3%, a viability, T/C [5] of 86.8% and a viability, T/C [6] of 87%. It also gave a viability, T/C [7] of 88%, a viability, T/C [8] of 102% and a viability, T/C [9] of 115%. The viability, T/C [10] was 94.3%, the viability, T/C [11] was 99.7% and the viability, T/C [12] was 87.1%. It also gave a viability, T/C [13] of 98.7%, a viability, T/C [14] of 88.6% and a viability, T/C [15] of 90.7%. The viability, T/C [16] was 96.1%, the viability, T/C [17] was 108% and the viability, T/C [18] was 70.5%. It also gave a viability, T/C [19] of 109%, a viability, T/C [20] of 98.6% and a viability, T/C [21] of 97.8%. For the same molecule, the viability, T/C [22] was 95.8%, the viability, T/C [23] was 90.5% and the viability, T/C [24] was 74.6%. For the same molecule, the viability, T/C [25] was 99.9%, the viability, T/C [26] was 96.9% and the viability, T/C [27] was 92%. For the same molecule, the viability, T/C [28] was 101%, the viability, T/C [29] was 82.2% and the viability, T/C [30] was 85.4%. The viability, T/C [31] was 78.6%, the viability, T/C [32] was 97% and the viability, T/C [33] was 81%. The viability, T/C [34] was 100%, the viability, T/C [35] was 85.9% and the viability, T/C [36] was 100%.

Work on `CCc1cc2c(N3CCc4c(cc(Cn5ccnc5)cc4-c4cn(C)nc4C(F)(F)F)C3=O)cc(C)nc2c(OC)n1` + COC1C(OC(N)=O)C(O)C(Oc2ccc3c(O)c(NC(=O)c4ccc(O)c(CC=C(C)C)c4)c(=O)oc3c2C)OC1(C)C yielded an IC50 (second compound 0.0316 µM) greater than 10 µM, an IC50 (second compound 0.1 µM) of 8.91 µM and an IC50 (second compound 0.316 µM) greater than 10 µM. It also gave an IC50 (second compound 1 µM) greater than 10 µM, an IC50 (second compound 3.16 µM) greater than 10 µM and an IC50 (second compound 10 µM) greater than 10 µM. It also gave a viability, T/C [1] of 103%, a viability, T/C [2] of 78% and a viability, T/C [3] of 89.6%. The viability, T/C [4] was 74.5%, the viability, T/C [5] was 74.3% and the viability, T/C [6] was 59.8%. For the same molecule, the viability, T/C [7] was 90.6%, the viability, T/C [8] was 87.1% and the viability, T/C [9] was 89%. The viability, T/C [10] was 81.1%, the viability, T/C [11] was 64.6% and the viability, T/C [12] was 48.4%. The viability, T/C [13] was 96.2%, the viability, T/C [14] was 80.6% and the viability, T/C [15] was 72.4%. For the same molecule, the viability, T/C [16] was 68.2%, the viability, T/C [17] was 74.2% and the viability, T/C [18] was 56.4%. The viability, T/C [19] was 76.9%, the viability, T/C [20] was 67.4% and the viability, T/C [21] was 69.4%. For the same molecule, the viability, T/C [22] was 68.5%, the viability, T/C [23] was 72.4% and the viability, T/C [24] was 71.3%. It also gave a viability, T/C [25] of 91.1%, a viability, T/C [26] of 77.4% and a viability, T/C [27] of 76.9%. It also gave a viability, T/C [28] of 62.5%, a viability, T/C [29] of 72.7% and a viability, T/C [30] of 61.8%. For the same molecule, the viability, T/C [31] was 82.1%, the viability, T/C [32] was 96.1% and the viability, T/C [33] was 84.2%. For the same molecule, the viability, T/C [34] was 66.2%, the viability, T/C [35] was 58.5% and the viability, T/C [36] was 62.6%.
